Measurements reported in US20190086390A1, “INDIRECT ASSESSMENT OF INSULIN RELEASE IN A CELL” (Board of Supervisors of Louisiana State University and …, priority 2016, published 2019).
Entries after “also recorded” stand apart in the source; their conditions may differ.

Tests used:
[1] = system: 832/13 cells; experiment: Live cell calcium imaging, glucose-induced calcium response (Calcium Green); assay type: cell-based, rat
Method: 832/13 cells were plated into six-well plates containing poly-d-lysine-coated coverslips (Neuvitro, Vancouver, Wash.). At 50% confluence, cells were treated for 18 h with one of four experimental groups: 1 ng/ml […] alone, 1 mM I-NMMA alone, IL-1β+ I-NMMA, or normal growth media. Immediately prior to imaging, cells were preloaded with Calcium Green 1 AM (CG, C3012; Life Technologies) by transferring coverslips to a solution of 10|×M CG in 20% Pluronic F127 in DMSO (Life Technologies) made up in carbogenated (95% 02-5% C02) normal Krebs. The recipe for normal Krebs solution was (in mM) 124 NaCl, 25 NaHC03, 2 glucose, 3 KC1, 2 CaCl2, 1.5 NaH2P04, and 1 MgS04-7H20, which corrected to pH 7.4 with HCl. After incubation in the CG solution for 30 min, coverslips were transferred to carbogenated normal Krebs at 29° C.
Coverslips were transferred to a recording chamber on a fixed stage Zeiss Axioskop2 microscope equipped with a Perkin Elmer Ultra-view/Yokogawa C10 spinning disk laser confocal illuminator. Cells were illuminated with the 488 nm laser; CG-calcium fluorescence signals were collected at 509 nm. Cells were visualized with a X40 water immersion objective. Images were collected with a Hammamatsu Ocra-ER charge-coupled device camera. The confocal system, including image collection, was controlled by Perkin-Elmer Improvision software.
Cells on coverslips were constantly perfused with normal Krebs solution at 29° C. at a rate of 3 ml/min. After 10 min, the perfusion solution was switched to one containing 12 mM glucose and proportionally less sodium chloride to maintain osmolality. The 12 mM glucose challenge was applied for 5 min, followed by a 5 min washout period. Images of CG-labeled cells were collected continuously during the challenge period at a rate of 20/min, with each frame taking 1 s. Images were collected as TIFF stacks and processed using Nikon Elements AR software. Individual cells in the field were designated as regions of interest (ROI), and their fluorescence signal over time was captured. Background fluorescence was subtracted from the fluorescence signal of individual ROIs. The relative changes in cytoplasmic calcium in the cells were expressed as changes in fluorescence [(AF/F) %], where F is the intensity of the baseline fluorescence signal before stimulation and AF is the difference between the peak fluorescence intensity and the baseline signal. Therefore, magnitude of response was normalized for each individual ROI.

[2] = system: CCL2; experiment: CCL2 secretion into media of 832/13 cells, ELISA; assay type: cell-based, rat; conditions: 1 ng/ml IL-1β + 1 mM I-NMMA, 6 h
Method: (§1) 832/13 cells were grown in 12-well plates and treated as indicated. RPMI was supplemented with 0.3% BSA, and media were collected at the indicated time points. In addition, the cells were lysed using M-PER lysis reagent (Thermo Fisher Scientific) to quantify total intracellular protein content. CCL2 and CCL20 secretion into the media was measured by CCL2 Quantikine ELISA kit (R & D Systems, Minneapolis, Minn.) and CCL20 DuoSet ELISA kit (R & D Systems) according to the manufacturer's protocol. ELISA data were normalized to total protein to account for any differences in cell number between treatment groups.

[3] = system: 832/13 cells; experiment: Oxygen consumption rate (Seahorse XF24); assay type: cell-based, rat; conditions: 1 ng/ml IL-1β + 1 mM I-NMMA, 18 h
Method: Oxygen consumption rates (OCR) were measured using the XF^24 Extracellular Flux Analyzer (Seahorse Bioscience, Chicopee, Mass.). 832/13 cells were grown on cell culture plates for 2 days prior to OCR assays being run. Cells were treated with vehicle, 1 ng/ml IL-β, 1 mM I-NMMA, or both IL-1β (1 ng/ml) plus I-NMMA (1 mM) for 18 h prior to OCR being measured. The oxygen consumption rate was measured over a 2-h period. Data represent the calculated average area under the curve from six wells per treatment group over multiple independent experiments.

[4] = system: 832/13 cells; experiment: Nitric oxide by EPR spectroscopy with (MGD)2Fe2+ spin trap; assay type: cell-based, rat; conditions: 1 ng/ml IL-1β 18 h
Method: The spin trap Af-methyl-d-glucamine dithiocarbamate-iron complex [(MGD)2-Fe^2+] was prepared fresh in each experiment by making stock solutions of 500 mM MGD and 100 mM Fe^2+ (from FeS04.7 H20) in ultrapure water under anaerobic conditions. A final concentration of 25 mM MGD and 5 mM Fe^2+ was introduced onto cells in culture using serum-free media with a 30-min incubation period. Supernatants were then collected for the measurements of the (MGD)2-iron-NO complex. All electron paramagnetic resonance (EPR) measurements were carried out in a quartz flat cell at room temperature. Samples were transferred directly into the flat cell, which was then placed into the cavity of a Bruker EMX Plus spectroscope. Typical instrumental conditions were as follows: 20 mW of microwave power, 5.0-G modulation amplitude, 1×10^5 gain, 0.163-s time constant, and 80-G scan range. Quantitation was carried out by measuring and comparing the first peak heights on the spectra.

[5] = system: CCL20; experiment: CCL20 secretion into media of 832/13 cells, ELISA; assay type: cell-based, rat; conditions: 1 ng/ml IL-1β + 1 mM I-NMMA, 6 h
Method: as §1

[6] = system: 832/13 cells; experiment: Glucose-stimulated insulin secretion (GSIS) in 832/13 cells, insulin ELISA; assay type: cell-based, rat
Method: 832/13 cells were grown in 12-well plates and treated as indicated. Glucose-stimulated insulin secretion (GSIS) assays were performed as described previously (29). Insulin secretion by cell lines into the media was measured using either the High Range Rat Insulin ELISA kit (Mercodia, Uppsala, Sweden) or by rat islets using the insulin radioimmunoassay (Siemens, Malvern, Pa.) according to the company directions. In addition, cells were lysed using M-PER lysis reagent (Thermo Fisher Scientific) to quantify total intracellular protein content via BCA assay (Thermo Fisher Scientific). Insulin secretion data were normalized to total protein to account for any differences in cell number between treatment groups. Incorporation of tritiated thymidine into DNA as a cellular index of proliferation was carried out as described (45).

[7] = system: 832/13 cells; experiment: Nitrite accumulation in culture media, Griess assay; assay type: cell-based, rat; conditions: 832/13 cells, 1 ng/ml IL-1β 18 h
Method: (§2) Nitrite in the cell culture media was measured as an index of NO production using the Griess assay kit (Promega, Madison, Wis.), whereas cellular reduction of the 3-(4,5-dimethylthiazol-2-yl)-5-(3-carboxymethoxyphenyl)-2-(4-sulfophe-nyl)-2H-tetrazohum, inner salt (MTS) dye was determined using the MTS 1 solution kit (Promega) according to the manufacturer's protocol.

[8] = system: 832/13 cells; experiment: MTS dye reduction assay; assay type: cell-based, rat; conditions: 1 ng/ml IL-1β + 1 mM I-NMMA, 18 h
Method: as §2

[9] = system: islets isolated from ZDF rats; conditions: islets from ZDF rats and clonal cells cultured in lipids; cited from earlier work
[10] = pretreated 18 h with I-NMMA plus IL-1β, 12 mM glucose

Row | SMILES | IL-1β-reduced change in intracellular calcium with NOS inhibitor ([1]; 1 mM I-NMMA) | magnitude of the response [1, 10] [%] | number of responsive cells [1, 10] [%] | responders and response magnitude relative to control pretreatment ([1]; pretreated with I-NMMA alone) | IL-1β-induced synthesis and secretion of CCL2 with NOS inhibitor [2] | IL-1β-induced decrease in oxygen consumption rate with NOS inhibitor [3] | IL-1β-induced nitric oxide production in presence of inhibitor [4] | IL-1β-induced CCL20 secretion with NOS inhibitor [5] | recovery of insulin secretion ([6]; IL-1β 1 ng/ml + I-NMMA 1 mM, 18 h) | IL-1β-induced nitrite production in presence of inhibitor [7] | IL-1β-induced decrease in MTS reduction with NOS inhibitor [8] | recovery of insulin secretion ([6]; IL-1β 18 h, 10 uM DMM during final 2 h) | insulin secretion [9]
1 | CNC(=N)NCCC[C@H](N)C(=O)O [I-NMMA, N^G-monomethyl-L-arginine, reference compound] | completely prevented | 30 | 89 | differed neither in the number of responders nor in the magnitude of the responses | not altered | prevented | lack of IL-Iβ-mediated elevations in nitric oxide formation | not impacted | almost complete recovery | completely inhibited | fully recovered |  | 
2 | COC(=O)CC(O)C(=O)OC (stereo not shown) [dimethyl malate, reference compound] |  |  |  |  |  |  |  |  |  |  |  | could be recovered; also recorded: enhanced insulin secretion | improves insulin secretion
